What was measured:
Assay type in all cases: in vivo
[1] = tested on: Amaranthus retoflexus (AMARE); test: Example B post-emergence herbicidal activity; conditions: Amaranthus retroflexus, 312 h, rate 250 g/ha, evaluated after 13 days, read-out: Post-emergence activity AMARE (100=total damage to plant; 0=no damage to plant)
Method in brief: (§1)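 Glasshouse pot test, 24/16 °C, 14 h light, 65% RH, watered twice daily. Spray timing: day 1 pre-em., day 8 post-em.; vehicle acetone/water 50:50 + 0.5% Tween 20. Readout 13 d, 0–100% damage.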

Setaria faberi (SETFA) [2] = test: Example B post-emergence herbicidal activity; conditions: 312 h, rate 250 g/ha, evaluated after 13 days, read-out: Post-emergence activity SETFA (100=total damage to plant; 0=no damage to plant)
Method in brief: as §1

Avena fatua (AVEFA) [3] = test: Example B post-emergence herbicidal activity; conditions: 312 h, rate 250 g/ha, evaluated after 13 days, read-out: Post-emergence activity AVEFA (100=total damage to plant; 0=no damage to plant)
Method in brief: as §1

[4] = tested on: Alopecurus myosuroides (ALOMY); test: Example B post-emergence herbicidal activity; conditions: 312 h, rate 250 g/ha, evaluated after 13 days, read-out: Post-emergence activity ALOMY (100=total damage to plant; 0=no damage to plant)
Method in brief: as §1

[5] = tested on: Echinochloa crus-galli (ECHCG); test: Example B post-emergence herbicidal activity; conditions: 312 h, rate 250 g/ha, evaluated after 13 days, read-out: Post-emergence activity ECHCG (100=total damage to plant; 0=no damage to plant)
Method in brief: as §1

[6] = tested on: Amaranthus retoflexus (AMARE); test: Example B pre-emergence herbicidal activity; conditions: Amaranthus retroflexus, 312 h, rate 250 g/ha, evaluated after 13 days, read-out: Pre-Emergence Activity AMARE (100=total damage to plant; 0=no damage to plant)
Method in brief: as §1

Setaria faberi (SETFA) [7] = test: Example B pre-emergence herbicidal activity; conditions: 312 h, rate 250 g/ha, evaluated after 13 days, read-out: Pre-Emergence Activity SETFA (100=total damage to plant; 0=no damage to plant)
Method in brief: as §1

Avena fatua (AVEFA) [8] = test: Example B pre-emergence herbicidal activity; conditions: 312 h, rate 250 g/ha, evaluated after 13 days, read-out: Pre-Emergence Activity AVEFA (100=total damage to plant; 0=no damage to plant)
Method in brief: as §1

[9] = tested on: Alopecurus myosuroides (ALOMY); test: Example B pre-emergence herbicidal activity; conditions: 312 h, rate 250 g/ha, evaluated after 13 days, read-out: Pre-Emergence Activity ALOMY (100=total damage to plant; 0=no damage to plant)
Method in brief: as §1

[10] = tested on: Echinochloa crus-galli (ECHCG); test: Example B pre-emergence herbicidal activity; conditions: 312 h, rate 250 g/ha, evaluated after 13 days, read-out: Pre-Emergence Activity ECHCG (100=total damage to plant; 0=no damage to plant)
Method in brief: as §1

| Compound | pest or weed control at 250 g/ha [1] [%] | pest or weed control at 250 g/ha (Setaria faberi (SETFA) [2]) [%] | pest or weed control at 250 g/ha (Avena fatua (AVEFA) [3]) [%] | pest or weed control at 250 g/ha [4] [%] | pest or weed control at 250 g/ha [5] [%] | pest or weed control at 250 g/ha [6] [%] | pest or weed control at 250 g/ha (Setaria faberi (SETFA) [7]) [%] | pest or weed control at 250 g/ha (Avena fatua (AVEFA) [8]) [%] | pest or weed control at 250 g/ha [9] [%] | pest or weed control at 250 g/ha [10] [%] |
| --- | --- | --- | --- | --- | --- | --- | --- | --- | --- | --- |
| Cc1sc(-c2ccc([S+](C)[O-])cc2)nc1C1C(=O)[C@@H]2CC[C@@H](C2)C1=O (some centres unmarked) [Compound T82] | 30 | 100 | 0 | 20 | 100 | 0 | 80 | 0 | 0 | 40 |
| CCc1sc(-c2ccc(SC)cc2)nc1C1C(=O)[C@@H]2CC[C@@H](C2)C1=O (some centres unmarked) [Compound T83] | 0 | 100 | 100 | 60 | 100 | 0 | 90 | 0 | 50 | 100 |
| Cc1sc(-c2ccc(OC(F)F)cc2Cl)nc1C1C(=O)[C@@H]2CC[C@@H](C2)C1=O (some centres unmarked) [Compound T84] | 40 | 100 | 70 | 90 | 100 | 0 | 100 | 40 | 70 | 100 |
| Cc1sc(-c2ccc(C(C)C)cc2)nc1C1C(=O)[C@@H]2CC[C@@H](C2)C1=O (some centres unmarked) [Compound T87] | 0 | 90 | 60 | 50 | 90 | 20 | 60 | 50 | 20 | 60 |
| Cc1cnc(-c2ccc(Cl)cc2)nc1C1C(=O)[C@@H]2CC[C@@H](C2)C1=O (some centres unmarked) [Compound T88] | 0 | 70 | 0 | 10 | 90 | 0 | 80 | 0 | 0 | 60 |
| Cc1sc(-c2ccc(OC(F)F)cc2F)nc1C1C(=O)[C@@H]2CC[C@@H](C2)C1=O (some centres unmarked) [Compound T92] | 10 | 100 | 100 | 100 | 100 | 0 | 100 | 90 | 70 | 100 |
| CCc1sc(-c2ccccc2)nc1C1C(=O)[C@@H]2CC[C@@H](C2)C1=O (some centres unmarked) [Compound T93] | 0 | 70 | 0 | 30 | 70 | 0 | 20 | 0 | 20 | 40 |
| CCc1sc(-c2ccc(C(F)(F)F)cc2)nc1C1C(=O)[C@@H]2CC[C@@H](C2)C1=O (some centres unmarked) [Compound T96] | 30 | 100 | 100 | 100 | 100 | 0 | 100 | 100 | 80 | 100 |
| CCc1sc(-c2ccc3ccccc3c2)nc1C1C(=O)[C@@H]2CC[C@@H](C2)C1=O (some centres unmarked) [Compound T99] | 0 | 100 | 100 | 100 | 100 | 20 | 60 | 30 | 50 | 60 |
| CCc1sc(-c2cc(F)c(OC)cc2F)nc1C1C(=O)[C@@H]2CC[C@@H](C2)C1=O (some centres unmarked) [Compound T102] | 0 | 100 | 100 | 100 | 100 | 0 | 50 | 30 | 50 | 70 |
| CCc1sc(-c2ccc(F)cc2F)nc1C1C(=O)[C@@H]2CC[C@@H](C2)C1=O (some centres unmarked) [Compound T104] | 0 | 100 | 90 | 100 | 100 | 0 | 50 | 20 | 70 | 100 |
| CCc1sc(-c2ccccc2Cl)nc1C1C(=O)[C@@H]2CC[C@@H](C2)C1=O (some centres unmarked) [Compound T106] | 0 | 70 | 0 | 10 | 30 | 0 | 20 | 0 | 0 | 10 |
| CCc1sc(-c2cnc(Cl)cc2C)nc1C1C(=O)[C@@H]2CC[C@@H](C2)C1=O (some centres unmarked) [Compound T110] | 0 | 100 | 70 | 60 | 90 | 20 | 100 | 30 | 30 | 60 |
| CCc1sc(-c2ccc(OC)c(F)c2)nc1C1C(=O)[C@@H]2CC[C@@H](C2)C1=O (some centres unmarked) [Compound T111] | 0 | 100 | 100 | 100 | 100 | 0 | 80 | 90 | 50 | 100 |
